# Experimental data reported in PMC11048566, “The Development of a Regulator of Human Serine Racemase for N-Methyl-D-aspartate Function” (Biomedicines, 2024).
# Where two headings read alike, the source gives them in different places.
# Experiments:
# [1] = tested on: MK-801-induced memory impairment; experiment: Novel object recognition test in MK-801-treated mice; type: in vivo, C57BL/6J male mice; details: 10 mg/kg oral, 0.2 mg/kg MK-801 IP; p < 0.01, n = 8
# Description: For behavioral studies, α12G was dissolved in 35% PEG-400 and administrated by oral gavage 20 min prior to the MK-801 insult. MK-801 (Sigma-Aldrich, St. Louis, MO, USA) was administrated via intraperitoneal (IP) injection 20 min prior to the behavioral tests, with the dosage of 0.2 mg/kg for the open field test and novel object recognition test and 0.3 mg/kg for the prepulse inhibition test.
# C57BL/6J male mice were randomly assigned into five groups, 6–8 mice per group, (1) saline control, (2) MK-801, (3) 1 mg/kg α12G + MK-801, (4) 3 mg/kg α12G + MK-801, and (5) 10 mg/kg α12G + MK-801. A novel object recognition test (NOR) was conducted in a square chamber (40 × 40 × 40 cm) under 15–20 lux light intensity, and a digital camera was used to record the behaviors. The test consisted of two sessions. In session I, mice were allowed to explore the chamber with two identical objects (yellow square Lego bricks) for 5 min and were then moved to the home cage for 5 min. In session II, mice were allowed to explore the chamber with one object kept the same (familiar object) and the other replaced with a novel object (blue circular bottle cap) for 10 min. The interaction of mice with both the objects (familiar vs. novel) was recorded, and the discrimination index was calculated with the following formula:Discrimination index = Time (novel object) − Time (familiar object)/Total exploring time
# [2] = molecular target: T1, human serine racemase (hSR) (Homo sapiens, UniProt Q9GZT4); experiment: Two-step enzymatic assay of hSR racemization (hSR, then DAAO/HRP/Amplex Red); type: biochemical; details: 0.25 mM ATP
# T1 construct: 6xHis (C); made in house; host or cells: E. coli BL21 (pET42b-hSR)
# T1 sequence (Q9GZT4 1-340): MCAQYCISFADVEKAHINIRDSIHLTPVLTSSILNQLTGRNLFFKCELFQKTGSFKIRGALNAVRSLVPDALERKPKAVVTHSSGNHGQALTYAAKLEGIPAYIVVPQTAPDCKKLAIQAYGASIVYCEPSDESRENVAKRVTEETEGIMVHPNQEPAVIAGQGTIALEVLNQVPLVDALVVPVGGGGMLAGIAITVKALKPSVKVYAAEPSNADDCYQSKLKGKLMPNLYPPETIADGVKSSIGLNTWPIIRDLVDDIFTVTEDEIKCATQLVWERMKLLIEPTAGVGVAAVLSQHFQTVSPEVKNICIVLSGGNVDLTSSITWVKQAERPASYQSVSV
# Description: This assay was designed by the formation of D-serine by hSR and the oxidation of D-serine by D-amino acid oxidase (DAAO) and horseradish peroxidase (HRP) with the peroxidase substrate Amplex Red^TM (10-acetyl-3,7-dihydroxyphenoxazine) (Thermo Fisher Scientific, Lagoas Park, Porto Salvo, Portugal). The hSR activity assay reaction was carried out in 100 mM HEPES buffer, pH 8.0, containing 2.4 µg of hSR protein, 50 µM PLP, 1 mM MgCl2, 0.25 mM ATP, 400 mM L-serine, and 2 times serially diluted α12G (8 mM to 0.2 µM). Compound-free wells were used as blank controls in the assay. All reactions were performed in duplicates. The reaction mixtures were incubated at 37 °C for 4 h. The reaction was stopped by heating the reaction mixtures at 95 °C for 10 min and storage at 4 °C. A reaction mixture for the second-step enzymatic assay, DAAO assay, with a final volume of 100 µL was made with a 10 µL sample from hSR assay, 45 µM FAD, 10 units of HRP, 60 ng DAAO, 10 mM lead acetate, 10 mM Amplex Red^TM, and 100 mM Tris HCl (pH = 8.5). Lead acetate was used to conjugate α12G as the latter would inhibit the DAAO function in the fluorometric assay, leading to an […] of the effects of α12G on hSR. The fluorescence was detected by the TECAN Infinite 200 Microplate Reader (GMI, MN, USA). The racemization percentage was calculated as follows: racemization % = (Fsample, 20 min − Fsample, 0 min)/(Fblank, 20 min − Fblank, 0 min) × 100%. […] The two-step enzymatic assay described in Section 2.3 was designed by the formation of D-serine by hSR and the consequent oxidation of D-serine by DAAO. The inhibition of DAAO, which also degrades D-serine, by α12G will lead to overestimating the effects of racemization by hSR. […] Therefore, lead acetate was applied to conjugate α12G for the determination of racemization. […] On the contrary, when the concentration of α12G is higher than 2 mM, the racemization activity of hSR is inhibited.
smiles,measurement,setting,value
"O=C(Oc1cc(C(=O)Oc2cc(C(=O)O[C@H]3OC[C@@H](OC(=O)c4cc(O)c(O)c(OC(=O)c5cc(O)c(O)c(OC(=O)c6cc(O)c(O)c(O)c6)c5)c4)[C@H](OC(=O)c4cc(O)c(O)c(OC(=O)c5cc(O)c(O)c(OC(=O)c6cc(O)c(O)c(O)c6)c5)c4)[C@H]3OC(=O)c3cc(O)c(O)c(OC(=O)c4cc(O)c(O)c(OC(=O)c5cc(O)c(O)c(O)c5)c4)c3)cc(O)c2O)cc(O)c1O)c1cc(O)c(O)c(O)c1 [α12G, (2R,3R,4S,5R)-tetrahydro-2H-pyran-2,3,4,5-tetrayl tetrakis(3-((3,4-dihydroxy-5-((3,4,5-trihydroxybenzoyl)oxy)benzoyl)ox)-4,5-dihydroxybenzoate)]",Effect on MK-801-induced memory impairment (novel object recognition),[1],attenuated this MK-801-induced memory impairment
same,Concentration above which hSR racemization activity is inhibited,[2],higher than 2 mM
same,EC100 (concentration of highest racemization activity),"[2]; 400 mM L-serine, lead acetate in second step",31.25 µM
same,Enhancement of hSR racemization,[2]; maximum vs compound-free,about 8 fold
same,EC50,"[2]; falling limb of inverted U-shape curve, read-out: EC50 on hSR racemization (progressively inhibiting racemization)",221 µM
same,EC50,"[2]; rising limb of inverted U-shape curve, read-out: EC50 on hSR racemization (favoring racemization)",8.82 µM
